Assay results as given in patent US11957680B2, “Pyruvate kinase activators for use in treating blood disorders” (Agios Pharmaceuticals, Inc., priority 2017, dated 2024).

Tests used:
[1] = target: PKR R510Q (Homo sapiens, UniProt P30613, R510Q); assay: PKR mutant assay (R510Q), AC50, LDH/NADH-coupled, absorbance at 340 nm; type: biochemical; settings: Table 4; AC50, enzyme assay; read-out: PK R510Q
How it was run: (§1)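 Human PKR, wild type or K410E/R510Q mutant (40-400 ng/well), preincubated 60 min at room temperature with compound (11-point 3-fold series from 100 μM, 1% DMSO) in Tris pH 7.5/KCl/MgCl2 buffer with PEP 0.1-0.5 mM, 180 μM NADH, LDH. ADP (0.2-1.65 mM) started the reaction; LDH-coupled NADH consumption followed at 340 nm.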

[2] = target: PKR K410E (Homo sapiens, UniProt P30613, K410E); assay: PKR mutant assay (K410E), AC50, LDH/NADH-coupled, absorbance at 340 nm; type: biochemical; settings: Table 4; AC50, enzyme assay
Sequence of PKR K410E (P30613 whole entry K410E): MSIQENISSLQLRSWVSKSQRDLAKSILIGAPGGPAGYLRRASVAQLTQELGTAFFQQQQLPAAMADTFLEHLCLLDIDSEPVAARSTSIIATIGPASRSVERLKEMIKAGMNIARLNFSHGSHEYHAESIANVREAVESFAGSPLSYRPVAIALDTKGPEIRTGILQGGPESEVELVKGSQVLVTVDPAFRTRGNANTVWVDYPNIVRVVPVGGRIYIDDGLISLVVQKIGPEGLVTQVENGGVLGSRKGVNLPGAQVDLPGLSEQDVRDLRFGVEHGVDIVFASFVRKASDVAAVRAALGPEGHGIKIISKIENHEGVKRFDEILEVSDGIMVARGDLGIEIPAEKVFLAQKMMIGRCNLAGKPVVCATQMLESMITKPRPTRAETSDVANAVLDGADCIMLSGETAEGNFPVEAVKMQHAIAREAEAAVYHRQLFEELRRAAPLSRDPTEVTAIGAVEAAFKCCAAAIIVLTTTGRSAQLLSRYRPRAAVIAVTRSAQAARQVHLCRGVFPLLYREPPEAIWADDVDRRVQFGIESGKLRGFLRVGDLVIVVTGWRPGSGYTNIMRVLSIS
How it was run: as §1

[3] = target: T1, wild type PKR (Homo sapiens, UniProt P30613); assay: PKR (wild type) enzyme AC50 assay, LDH/NADH-coupled, absorbance at 340 nm; type: biochemical; settings: Table 4; AC50, enzyme assay; read-out: PKR WT
T1 sequence (P30613 whole entry): as the sequence (P30613 whole entry K410E) above, with E410K counted along it
How it was run: as §1

[4] = target: T1, wild type PKR; assay: Cell based ATP assay in purified red blood cells (Cell-Titer-Glo); design: endogenous in cells; host or cells: purified red blood cells from healthy volunteers; settings: Table 4; AC50, RBCs, overnight at 37° C., ATP levels
How it was run: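 RBCs from healthy human donors' K2EDTA blood were leukocyte-depleted by filtration and resuspended in AGAM (PBS, 1% glucose, adenine, mannitol). Cells at 1×10^7 cells/mL were incubated overnight at 37 °C with serially diluted compound at 0.1% DMSO, and ATP was read by Cell-Titer-Glo luminescence.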

Sequence of PKR R510Q (P30613 whole entry R510Q): as the sequence (P30613 whole entry K410E) above, with E410K, R510Q counted along it

SMILES	EC50 [1] [nM]	EC50 [2] [nM]	EC50 [3] [nM]	EC50 [4] [nM]
Cn1c2nc(Cc3nnco3)sc2c2cnn(Cc3cccc4[nH]ncc34)c(=O)c21 [Compound 221]	301 to 800	< 300	< 300	> 1000
Cn1c2nc(Cc3cnc(N)s3)sc2c2cnn(Cc3cccc4[nH]ncc34)c(=O)c21 [Compound 229]	301 to 800	301 to 800	301 to 800	> 1000
Cn1c2nc(Cc3cc[nH]n3)sc2c2cnn(Cc3ccc4scnc4c3)c(=O)c21 [Compound 237]	< 300	< 300	< 300	≤ 1000
Cn1c2nc(Cc3cnco3)sc2c2cnn(Cc3cccc4[nH]ncc34)c(=O)c21 [Compound 240]	301 to 800	> 800	301 to 800	≤ 1000
Cn1c2nc(Cc3cccc4cn[nH]c34)sc2c2cnn(Cc3cc[nH]n3)c(=O)c21 [Compound 241]	< 300	< 300	< 300	≤ 1000
Cn1c2nc(Cc3n[nH]cc3Cl)sc2c2cnn(Cc3cccc4[nH]ncc34)c(=O)c21 [Compound 244]	< 300	< 300	< 300	≤ 1000
Cn1c2nc(Cc3cccc4[nH]c(=O)[nH]c34)sc2c2cnn(Cc3cccc4[nH]ncc34)c(=O)c21 [Compound 245]	< 300	301 to 800	301 to 800	≤ 1000
Cn1c2nc(Cc3cc[nH]n3)sc2c2cnn(Cc3cccc4[nH]ccc34)c(=O)c21 [Compound 246]	< 300	< 300	< 300	≤ 1000
Cn1c2nc(Cc3cc[nH]n3)sc2c2cnn(Cc3cccc4[nH]c(=O)[nH]c34)c(=O)c21 [Compound 252]	< 300	< 300	< 300	≤ 1000
Cn1c2nc(Cc3cc[nH]n3)sc2c2cnn(Cc3cccc4c3CNC4)c(=O)c21 [Compound 253]	< 300	< 300	< 300	≤ 1000
Cn1c2nc(Cc3cc[nH]n3)sc2c2cnn(Cc3ccc(O)c(N)c3)c(=O)c21 [Compound 256]	< 300	< 300	< 300	≤ 1000
Cn1ccc(Cn2ncc3c4sc(Cc5cccc6cn[nH]c56)nc4n(C)c3c2=O)n1 [Compound 258]	< 300	< 300	< 300	≤ 1000
Cn1c2nc(Cc3ccccn3)sc2c2cnn(Cc3ccccc3)c(=O)c21 [Compound 263]	< 300	< 300	< 300	≤ 1000
Cn1c2nc(Cc3cscn3)sc2c2cnn(Cc3ccccc3)c(=O)c21 [Compound 270]	< 300	< 300	< 300	≤ 1000
Cn1c2nc(Cc3c[nH]nn3)sc2c2cnn(Cc3ccccc3)c(=O)c21 [Compound 273]	> 800	> 800	> 800	> 1000
Cn1c2nc(Cc3cc[nH]n3)sc2c2cnn(Cc3cccc4c3NS(=O)(=O)N4)c(=O)c21 [Compound 275]	> 800	> 800	> 800	> 1000
Cn1c2nc(Cc3cccc(N)n3)sc2c2cnn(Cc3cccc4[nH]ncc34)c(=O)c21 [Compound 276]	< 300	< 300	< 300	≤ 1000
Cn1c2nc(Cn3ccnc3)sc2c2cnn(Cc3cccc4[nH]ncc34)c(=O)c21 [Compound 277]	> 800	301 to 800	> 800	> 1000
Cn1c2nc(Cc3cc[nH]n3)sc2c2cnn(Cc3cccc4[nH]cnc34)c(=O)c21 [Compound 278]	< 300	< 300	< 300	≤ 1000
Cn1c2nc(Cc3cc[nH]n3)sc2c2cnn(Cc3ccc4[nH]ncc4n3)c(=O)c21 [Compound 280]	< 300	< 300	< 300	≤ 1000
Cn1ncc2nc(Cn3ncc4c5sc(Cc6cc[nH]n6)nc5n(C)c4c3=O)ccc21 [Compound 288]	< 300	< 300	< 300	≤ 1000
Cn1c2nc(Cc3c[nH]nn3)sc2c2cnn(Cc3cccc(OC(F)(F)F)c3)c(=O)c21 [Compound 290]	< 300	< 300	< 300	≤ 1000
Cn1c2nc(Cn3cccn3)sc2c2cnn(Cc3cccc4[nH]ncc34)c(=O)c21 [Compound 292]	< 300	< 300	< 300	≤ 1000
Cn1c2nc(Cn3cncn3)sc2c2cnn(Cc3cccc4[nH]ncc34)c(=O)c21 [Compound 293]	301 to 800	< 300	< 300	≤ 1000
Cn1c2nc(Cn3cnnc3)sc2c2cnn(Cc3cccc4[nH]ncc34)c(=O)c21 [Compound 294]	301 to 800	> 800	> 800	> 1000

Next, values leading:

EC50 [1] [nM]	EC50 [2] [nM]	EC50 [3] [nM]	EC50 [4] [nM]	SMILES
< 300	< 300	< 300	≤ 1000	Cn1c2nc(Cc3nccs3)sc2c2cnn(Cc3cccc4[nH]ncc34)c(=O)c21 [Compound 222]
< 300	< 300	< 300	≤ 1000	Cn1ncc2cc(Cn3ncc4c5sc(Cc6cc[nH]n6)nc5n(C)c4c3=O)ccc21 [Compound 224]
< 300	< 300	< 300	≤ 1000	Cn1c2nc(Cc3cccc4[nH]nnc34)sc2c2cnn(Cc3cccc4[nH]ncc34)c(=O)c21 [Compound 225]
< 300	< 300	< 300	≤ 1000	Cn1c2nc(Cc3cc[nH]n3)sc2c2cnn(Cc3ccc4c(c3)OCO4)c(=O)c21 [Compound 226]
< 300	< 300	< 300	≤ 1000	Cn1c2nc(Cc3cscn3)sc2c2cnn(Cc3cccc4[nH]ncc34)c(=O)c21 [Compound 227]
< 300	< 300	< 300	≤ 1000	Cn1c2nc(Cc3ccc[nH]c3=O)sc2c2cnn(Cc3cccc4[nH]ncc34)c(=O)c21 [Compound 228]
< 300	< 300	< 300	≤ 1000	Cn1c2nc(Cc3nc[nH]n3)sc2c2cnn(Cc3cccc4[nH]ncc34)c(=O)c21 [Compound 230]
< 300	< 300	< 300	≤ 1000	Cn1c2nc(Cc3cc(Cl)[nH]n3)sc2c2cnn(Cc3cccc4[nH]ncc34)c(=O)c21 [Compound 233]
< 300	< 300	< 300	> 1000	Cn1c2nc(Cc3cc(F)[nH]n3)sc2c2cnn(Cc3cccc4[nH]ncc34)c(=O)c21 [Compound 234]
< 300	< 300	< 300	≤ 1000	Cn1c2nc(Cc3cc[nH]n3)sc2c2cnn(Cc3cccc4sc(N)nc34)c(=O)c21 [Compound 235]
< 300	< 300	< 300	≤ 1000	Cn1c2nc(Cc3n[nH]cc3F)sc2c2cnn(Cc3cccc4[nH]ncc34)c(=O)c21 [Compound 236]
